In article PMC8348142, “Antimicrobial Peptide Modifications against Clinically Isolated Antibiotic-Resistant Salmonella” (Molecules, 2021):
Marks after values point to notes of the source that are not given here. Ends that are not written are not given here.

Legend:
Format in all cases: cell-based
sheep red blood cells = assay: Hemolytic activity assay; conditions: for percent hemolysis: 2% sRBCs in PBS, 37 °C, 1 h, OD540, triplicate mean
Procedure: The peptide toxicity to the mammalian system was screened based on the hemolytic test by measuring the hemoglobin released from ruptured red blood cells (RBCs). In this study, sheep RBCs (sRBCs) were employed. They were thrice washed and prepared as a suspension in phosphate-buffered saline (PBS, Oxoid). A suspension of 2% sRBCs was incubated with 2-fold serial dilutions of peptide (final concentrations; 256 to 1 µM in a total volume of 200 µL) at 37 °C for 1 h. The solutions of 0.1% (final concentration) Triton X-100 (Sigma-Aldrich) and PBS containing the peptide solvent were used instead of the peptides as the controls of hemolysis at 100% and 0%, respectively. Thereafter, the post-incubated suspensions were centrifuged (1000× g, 3 min) to pelletize residual sRBCs. The supernatants were then transferred into a flat-bottom PS 96-well plate and were measured the absorbance at 540 nm (OD540) by a microplate reader. The test was conducted in triplicate and the mean OD540 was used to calculate the hemolysis (%) as; ((OD540 (peptide) − OD540 (PBS + peptide solvent))/(OD540 (0.1% Triton X-100) − OD540 (PBS + peptide solvent))) × 100. The hemolytic concentration 50 (HC50), a concentration inducing 50% hemolysis, was determined.
The GraphPad Prism version 7.00 (GraphPad Software, La Jolla, CA, USA) was applied for all statistical analyses and data visualizations. Replicate quantitative results were calculated and shown as mean ± SD, unless otherwise specified. The HC50 values were determined using nonlinear regression analysis. The paired t-test and repeated measures one-way ANOVA with Tukey’s multiple comparison test were applied to compare between 2 groups and among 3 or more groups, respectively. The comparisons were considered as a statistically significant difference when a p-value < 0.05.

[1] = tested on: clinical Salmonella isolates; assay: MIC, broth microdilution; conditions: MHB, 5 × 10^5 CFU/mL, 37 °C, 18 h, duplicate
Procedure: (§1) All 12 isolates of Salmonella used in this study were clinical isolates and anonymous left-overs from laboratory diagnoses. They were maintained in a 20% glycerol (Sigma-Aldrich) stock at −80 °C and further cultured on Mueller-Hinton agar (MHA, Oxoid, Hampshire, UK) at 37 °C for 18 h to obtain single colonies for antimicrobial assays. This study was approved by the Ethics Committee of the Faculty of Tropical Medicine (Mahidol University, Bangkok, Thailand; MUTM-EXMPT 2017-007).
MIC was determined using the broth microdilution method described by Hancock with some modifications. Briefly, bacterial colonies grown from the MHA were prepared in MHB (Oxoid) as a 0.5 McFarland suspension (which is equal to 1 × 10^8 CFU/mL), and was further 200-fold diluted by the MHB (5 × 10^5 CFU/mL). The bacterial suspension (50 µL) was mixed with 2-fold serial dilutions of peptide (5.5 µL) achieving final concentrations of 256 to 1 µM using a round-bottom polypropylene (PP) 96-well plate (Greiner Bio-One). The plate was incubated at 37 °C for 18 h including incubating peptide free-bacteria as positive growth control, and MHB as negative growth control. After the incubation, the lowest concentration with no visible growth was defined as a MIC value. The assay was performed in a duplicate manner.

[2] = tested on: clinical Salmonella isolates; assay: MBC, drop plate method, and MBC/MIC mode of action; conditions: for MBC: drop plate on MHA from MIC plate, 37 °C, 18 h, thrice
Procedure: as §1
The plate derived from the MIC assay was immediately tested for the MBC using a drop plate method. A volume of 10 µL of the culture from individual wells at MIC, 2MIC, and 4MIC was dropped on MHA plates. […] The experiment was thrice performed.
In order to determine whether the peptides have bacteriostatic or bactericidal activity, a ratio of MBC to MIC (MBC/MIC) was applied. The ratio >4 was indicative of bacteriostatic peptide, and ≤4 was inferred as bactericidal peptide.

FFFIRRIARLLRRIF-NH2 [2F-Kn2-5R-NH2]
HC50 (hemolytic concentration 50) (sheep red blood cells; concentration inducing 50% hemolysis of sRBCs, nonlinear regression, unit (µM)): 5.60 µM
percent hemolysis (sheep red blood cells; peptide 1 µM): 6.1%
percent hemolysis (sheep red blood cells; peptide 2 µM): 15%
percent hemolysis (sheep red blood cells; peptide 4 µM): 33.7 * %
percent hemolysis (sheep red blood cells; peptide 8 µM): 61.6 * %
percent hemolysis (sheep red blood cells; peptide 16 µM): 96.2%
percent hemolysis (sheep red blood cells; peptide 32 µM): 97.6%
percent hemolysis (sheep red blood cells; peptide 64 µM): 97.9%
percent hemolysis (sheep red blood cells; peptide 128 µM): 99.8%
percent hemolysis (sheep red blood cells; peptide 256 µM): 100%
concentration required for the initiation of hemolysis (sheep red blood cells; sRBCs, 60 min, 256–1 µM tested): 1000 nM
MIC ([1]; isolate 5 (Enteritidis, blood; resistant AMP, SXT, KZ)): 4 µM
MIC ([1]; isolate 7 (Typhimurium, blood; resistant AMP, CN, TE, NA, SXT)): 4 µM
MIC ([1]; isolate 11 (I 1,4:i:-, blood; resistant AMP, TE, NA, SXT, C)): 4 µM
MIC ([1]; isolate 18 (Stanley, urine; resistant TE, SXT, C)): 8 µM
MIC ([1]; isolate 26 (Typhimurium, urine; resistant TZP, TE, NA)): 8 µM
MIC ([1]; isolate 27 (Typhimurium, stool; resistant AMP, TE, NA, SXT, CIP)): 8 µM
MIC ([1]; isolate 55 (Typhimurium, blood; resistant AMP, SXT, C, TE)): 8 µM
MIC ([1]; isolate 61 (Enteritidis, blood; resistant AMP, TE, NA, SXT)): 4 µM
MIC ([1]; isolate 69 (Typhimurium, stool; resistant AMP)): 4 µM
MIC ([1]; isolate 76 (Enteritidis, CSF; resistant NA)): 8 µM
MIC ([1]; isolate 78 (Enteritidis, blood; resistant TE, CIP, NA, SXT)): 8 µM
MIC ([1]; isolate 107 (Typhimurium, stool; susceptible)): 4 µM
GM of MBC ([2]; geometric mean over 12 clinical Salmonella isolates): 5.66 µM
MBC ([2]; isolate 5 (Enteritidis)): 4 µM
MBC ([2]; isolate 7 (Typhimurium)): 4 µM
MBC ([2]; isolate 11 (I 1,4:i:-)): 4 µM
MBC ([2]; isolate 18 (Stanley)): 8 µM
MBC ([2]; isolate 26 (Typhimurium)): 8 µM
MBC ([2]; isolate 27 (Typhimurium)): 8 µM
MBC ([2]; isolate 55 (Typhimurium)): 8 µM
MBC ([2]; isolate 61 (Enteritidis)): 4 µM
MBC ([2]; isolate 69 (Typhimurium)): 4 µM
MBC ([2]; isolate 76 (Enteritidis)): 8 µM
MBC ([2]; isolate 78 (Enteritidis)): 8 µM
MBC ([2]; isolate 107 (Typhimurium)): 4 µM
